Molecular target: T1, CmoA (Escherichia coli, UniProt P76290)
T1 construct: R100H versus P76290 (PCR mutation or strain difference); expressed in E. coli Rosetta pLysS (DE3); dimer; residues 19-247 (chain A) and 20-244 (chain B) modelled
Assay: X-ray crystal structure ([…] A); FT-MS of released ligand
Format: binding
Conditions: copurified from E. coli expression host; carboxymethyl carboxylate salt bridge to Arg199; putative active site

T1 sequence (P76290 whole entry R100H, the tested form may be a part): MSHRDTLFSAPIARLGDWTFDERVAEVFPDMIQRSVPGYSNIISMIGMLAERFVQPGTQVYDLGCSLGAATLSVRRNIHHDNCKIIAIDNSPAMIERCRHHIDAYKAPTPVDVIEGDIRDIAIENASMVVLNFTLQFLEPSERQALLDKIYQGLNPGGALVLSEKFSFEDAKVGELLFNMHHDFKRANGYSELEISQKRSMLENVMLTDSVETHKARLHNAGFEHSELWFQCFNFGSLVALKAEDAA

In the case of Nc1ncnc2c1ncn2[C@@H]1O[C@H](C[S+](CC[C@H](N)C(=O)O)CC(=O)O)[C@@H](O)[C@H]1O (stereo partly drawn) [[(3S)-3-amino-3-carboxypropyl]{[(2S,3S,4R,5R)-5-(6-aminopurin-9-yl)-3,4-dihydroxyoxolan-2-yl]methyl}(carboxymethyl)sulfanium], the “X-ray crystal structure (1.73 A); FT-MS of released ligand” value is reported as “both molecules of CmoA contain the novel derivative S-adenosyl-S-carboxymethyl-L-homocysteine (SCM-SAH)”.

Source: PMC3663124, “S-Adenosyl-S-carboxymethyl-L-homocysteine: a novel cofactor found in the putative tRNA-modifying enzyme CmoA” (Acta Crystallographica Section D: Biological Crystallography, 2013)
